# Assay results: ChEMBL document CHEMBL1201862, “PubChem BioAssay data set” (2004)
# Active and inactive are the calls of the source.
# Key:
# [1] = reduced cellular PGC1a acetyl-lysine signal – cell-based, cherry-picked samples, dose response (AID 720514); type: functional;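 also: potency may reflect raised or lowered acetylation signal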
# [2] = growth inhibition of yeast DHODH-expressing 3D7 parasites – SYBR Green, dry powder samples, dose response (AID 1159570); type: functional, cell-based;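 also: parasite growth measured after 72 hours of compound exposure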
# [3] = toxicity to human HepG2 hepatoma cells – cell-based, plate reader, dry powder samples, cytotoxicity control, dose response (AID 1159569); type: functional;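 also: inhibitor potency with signal falling toward the positive control level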
# [4] = P. falciparum Dd2 growth inhibitors, dose response, SYBR Green, cherry-picked samples (AID 1159567); type: functional, cell-based
# [5] = Dd2 malaria parasite growth inhibition potency – SYBR Green, dry powder samples, dose response (AID 1159566); type: functional, cell-based;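 also: potency for growth inhibition with lower SYBR green DNA signal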
# [6] = growth inhibition of PfATP4-mutant resistant parasites – NITD609-resistant line, SYBR Green, dry powder, dose response (AID 1159571); type: functional, cell-based;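 also: parasites synchronized at ring stage by sorbitol before testing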
# [7] = toxicity to HepG2 liver cells – cell-based, plate reader, dry powder, set 6, cytotoxicity control, dose response (AID 743311); type: functional
# Paired box protein Pax-8 = Paired box protein Pax-8 (Homo sapiens, UniProt Q06710); test: PAX8 transcriptional activity inhibition in RMG-I – RMG-I cells, luciferase, cherry-pick, dose response (AID 687027); type: functional, cell-based;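 also: luciferase reporter driven by Pax8 target thyroperoxidase promoter measured by SteadyGlo luminescence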
# [8] = OVCAR8 cell viability loss – plate reader, dry powder samples, PAX8 project, dose response (AID 743197); type: functional, cell-based; settings: OVCAR-8
# [9] = lung carcinoma cell viability loss – CellTiter-Glo luminescence, dry powder, set 17, dose response (AID 1117284); type: functional, cell-based; settings: A549
# [10] = rise of 2N DNA cells, HeLa – IC50, dose response (AID 1117349); type: functional, cell-based
# [11] = CellTiter-Glo luminescence survival assay, SW480 colon tumor line, concentration-response curve, half-maximal inhibitory concentration (AID 1117338); type: functional
# [12] = RKO cell viability reduction, dose response, CellTiter-Glo luminescence (AID 1117322); type: functional
# [13] = cytotoxicity toward HCT116 cells – cell-based, CellTiter-Glo luminescence, IC50, dose response (AID 1117332); type: functional; settings: HCT-116
# [14] = SNU-C1 cell viability reduction, dose response, CellTiter-Glo luminescence (AID 1117323); type: functional, cell-based
# [15] = cytotoxicity toward Colo320 cells – cell-based, CellTiter-Glo luminescence, IC50, dose response (AID 1117334); type: functional; settings: COLO 320
# [16] = rise of 4N DNA cells, HeLa – IC50, dose response (AID 1117351); type: functional, cell-based
# [17] = cytotoxicity toward HT-29 cells – cell-based, CellTiter-Glo luminescence, IC50, dose response (AID 1117330); type: functional
# [18] = Reduced DLD-1 viability, concentration-response, CellTiter-Glo luminescence (AID 1117352); type: functional
# [19] = HCT116 cell viability decrease, GSK3B pretreatment – CellTiter-Glo, IC50, dose response (AID 1117339); type: functional; settings: HCT-116
# [20] = target: RNA-editing ligase 1, mitochondrial (Trypanosoma brucei brucei, UniProt P86926); test: inhibition of trypanosome RNA editing ligase – biochemical, fluorescence, Trypanosoma brucei, dose response (AID 1117295); type: functional
# RNA-editing ligase 1, mitochondrial, sequence (P86926 whole entry): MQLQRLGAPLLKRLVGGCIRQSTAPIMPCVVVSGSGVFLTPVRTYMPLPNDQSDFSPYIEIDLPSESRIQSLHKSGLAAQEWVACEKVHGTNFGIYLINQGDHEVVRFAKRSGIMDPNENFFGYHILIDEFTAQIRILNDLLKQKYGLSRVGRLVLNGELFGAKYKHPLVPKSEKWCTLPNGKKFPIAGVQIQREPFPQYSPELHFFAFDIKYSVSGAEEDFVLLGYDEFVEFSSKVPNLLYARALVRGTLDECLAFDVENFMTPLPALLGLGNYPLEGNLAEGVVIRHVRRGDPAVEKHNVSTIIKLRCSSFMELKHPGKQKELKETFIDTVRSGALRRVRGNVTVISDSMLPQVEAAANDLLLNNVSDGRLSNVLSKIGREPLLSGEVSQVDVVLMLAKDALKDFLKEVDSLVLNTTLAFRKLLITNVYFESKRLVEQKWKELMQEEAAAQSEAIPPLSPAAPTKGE
# Paired box protein Pax-8, sequence (Q06710 whole entry): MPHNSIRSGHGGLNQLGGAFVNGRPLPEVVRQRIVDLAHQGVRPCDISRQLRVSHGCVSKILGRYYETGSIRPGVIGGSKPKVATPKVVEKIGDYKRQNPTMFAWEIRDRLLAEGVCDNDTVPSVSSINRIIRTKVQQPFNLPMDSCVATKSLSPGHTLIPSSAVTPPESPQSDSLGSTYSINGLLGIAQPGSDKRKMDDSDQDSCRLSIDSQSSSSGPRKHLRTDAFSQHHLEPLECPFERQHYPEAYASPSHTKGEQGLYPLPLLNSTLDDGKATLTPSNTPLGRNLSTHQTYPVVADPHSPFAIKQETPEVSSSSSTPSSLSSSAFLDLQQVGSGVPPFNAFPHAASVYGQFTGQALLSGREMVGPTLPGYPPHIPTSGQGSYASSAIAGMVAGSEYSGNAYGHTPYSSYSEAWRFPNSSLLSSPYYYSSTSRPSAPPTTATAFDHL
compound,measurement,setting,value
O=S(=O)(c1ccc(-c2ccccc2)cc1)N1C[C@@H]2N[C@H](C1)[C@@H]2c1ccc(-c2cccnc2)cc1,AC50,[1],8.2 µM (active)
same,AC50,[2],1.29 µM (active)
same,AC50,[3],19.5 µM (active)
same,AC50,[4],2.14 µM (active)
same,AC50,[5],0.772 µM (active)
same,AC50,[6],1.8 µM (active)
CC(C)Oc1ccc(OCCn2c(=S)[nH]c3ccccc32)cc1,AC50,[7],> 52 µM (inactive)
C[C@H](O)C#Cc1ccc2c(c1)O[C@H](CN(C)Cc1ccc(-c3ccccc3)cc1)[C@H](C)CN([C@@H](C)CO)S2(=O)=O,AC50,Paired box protein Pax-8,5.87 µM (active)
same,AC50,[8],50 µM (active)
same,AC50,[9],> 52 µM (inactive)
O=C1C2CC=CCC2C(=O)N1SC(Cl)(Cl)Cl (stereo unspecified) [CAPTAN],IC50,[10],> 10 µM (inactive)
same,IC50,[11],0.0788 µM (active)
same,IC50,[12],0.402 µM (active)
same,IC50,[13],1.76 µM (active)
same,IC50,[14],0.903 µM (active)
same,IC50,[15],0.306 µM (active)
same,IC50,[16],> 10 µM (inactive)
same,IC50,[17],0.5 µM (active)
same,IC50,[18],0.348 µM (active)
same,IC50,[19],2.21 µM (active)
C=CCNCCOCCOc1ccc(Cl)cc1C(C)(C)C,IC50,[20],> 96.6 µM (inactive)
